Assay results as given in patent US20260315434A1, “USE OF GUAIACOL SESQUITERPENE LACTONE DERIVATIVES” (NANJING UNIVERSITY OF CHINESE MEDICINE, priority 2023, published 2026).
In brackets after ≈: the same amount, converted by molar mass.

What was measured:
MDSCs = experiment: Inhibition of MDSC chemotaxis (Transwell, tumor-conditioned medium); type: cell-based, mouse; parameters: inhibition of MDSC chemotaxis compared to Arg: dose or concentration left out as unconfirmed
Experimental: Hepa1-6 mouse hepatocellular carcinoma cells were uniformly seeded into 6-well plates. After cells reached confluence, supernatant was aspirated, and 1-1.5 mL fresh medium was added to each well. Following 24 h culture, supernatant was collected, centrifuged at 1600 rpm for 5 min, aspirated, and filtered through a 0.22 μm membrane to obtain tumor-conditioned medium for subsequent use. […] Under sterile conditions, remove the tibia, cut both ends of the bone, and aspirate the bone marrow into a 1 mL syringe. Repeat flushing into a 15 mL centrifuge tube. Centrifuge at 1600 rpm for 5 min to collect bone marrow cells. Wash twice with 1×PBS. […] Count cells, adjust density to 1×10^6 cells/mL, and uniformly seed into 24-well plates at 300 μL per well. […] Centrifuge at 1600 rpm for 5 min, remove supernatant, resuspend cells in 300 μL fresh medium, and place into Transwell chambers. […] Co-culture for 24 h.

[1] = Water solubility testing of compounds (HPLC); conditions: deionized water, water, Water-solubility, 37 °C
[2] = test system: inflammatory markers in the ears of AD mice; experiment: MC903-induced atopic dermatitis of the ear, ointment: mRNA of inflammatory markers; type: in vivo, mouse
Experimental: (§1) Dissolve these substances in a small amount of propylene glycol, then place the resulting solution into the aforementioned pre-cooled blank ointment base. Finally, add water to make the total mass up to 10 g, and grind the mixture thoroughly in a mortar.
(§2) Except for the Normal group, all other groups underwent AD modeling: 20 μL of MC903 solution (also known as calcipotriol, purchased from Shanghai Yuanye Biotechnology Co., Ltd., used for inducing atopic models) was applied to each mouse's ears once daily for 14 consecutive days to induce the atopic dermatitis model. […] Measure ear thickness changes every 2 days using an electronic caliper before modeling and after treatment initiation.

CCR2 mRNA = experiment: Inhibition of CCR2 mRNA level in MDSCs; type: cell-based; conditions: Mus musculus, 2 h, read-out: Suppression Rate (inhibition of CCR2 mRNA levels)
Experimental: Under sterile conditions, the tibia was removed, both ends of the bone were cut, and bone marrow was repeatedly flushed into a 15 mL centrifuge tube using a 1 mL syringe filled with culture medium. Centrifuge at 1600 rpm for 5 min to collect bone marrow cells. […] Count cells and adjust density to 1×10^6 cells/mL in complete medium. Seed cells uniformly into 6-well plates at 2 mL per well. […] After incubation, collect cells into centrifuge tubes, centrifuge at 1600 rpm for 5 min, wash once with 1×PBS, and add 500 μL RNA extraction reagent to each tube. After centrifugation to obtain the pellet, add 20 μL DEPC-treated water to each tube to dissolve the pellet. Determine RNA concentration and reverse transcribe to cDNA. Add the cDNA, primers, and […] to a 96-well plate. Centrifuge at 4000 rpm for 5 min, then place in a PCR instrument for detection.

dorsal atopic dermatitis = experiment: MC903-induced atopic dermatitis of the dorsum, ointment: skin thickness, dermatitis score, lesions; type: in vivo, mouse; conditions: for inhibition rate of dorsal skin thickness increase: final day
Experimental: as §1
Except for the Normal group, all other groups underwent AD modeling: 48 hours prior to the experiment, hair on the dorsal neck region was meticulously removed using clippers and depilatory cream. Following modeling initiation, 20 μL of MC903 solution was applied once daily to the dorsal neck region for 14 consecutive days to induce the AD model. […] Model and control group mice received daily application of blank ointment. Twenty-four hours after completing the 14-day modeling period, photographs of skin lesions were taken, and skin lesion and blood samples were collected.
(§3) Skin Lesion Severity Score: Daily skin lesion severity was assessed in mice using the following criteria, primarily encompassing four symptoms: 1) erythema/hemorrhage; 2) dryness; 3) desquamation/erosion; 4) edema. Each symptom was scored from 0 to 3 based on lesion severity: no symptoms=0 points, mild=1 point, moderate=2 points, severe=3 points. […] Higher scores indicated more severe lesions, with a maximum score of 12. Statistical analysis was performed on the data.

[3] = test system: mouse ear atopic dermatitis; experiment: MC903-induced atopic dermatitis of the ear, ointment: ear thickness, dermatitis score, lesions; type: in vivo; conditions: for inhibition rate of ear thickness increase: final day
Experimental: (1) Preparation of Oil Phase: Weigh white petrolatum, light liquid paraffin, glyceryl monostearate, ethylparaben, and cetyl alcohol. Heat to 65° C. while stirring until dissolved. Slowly add the dissolved active pharmaceutical ingredient (API) while continuing to stir until uniformly mixed. Set aside.
(2) Aqueous Phase Preparation: Weigh purified water and Tween 80, heat to 70° C., stir to dissolve, and set aside;
(3) Emulsification: Slowly add the aqueous phase to the oil phase while maintaining 65° C., homogenize, and continue stirring for 30 min;
(4) Cooling: Stop heating, continue stirring, gradually reduce to room temperature, cool to form an ointment, and fill containers.
as §1, §2, §3

T cells / MDSCs = experiment: Promotion of T cell proliferation in a co-culture model of MDSCs and T cells; type: cell-based, mouse; conditions: for activation at 1 µM: Mus musculus, T-cell, 12 h, read-out: T-cell proliferation rate (%), 1 μM, MDSCs treated 12 hours, co-culture of MDSCs and T cells, compared to the control group
In short: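 Bone-marrow MDSCs, after compound treatment, were co-cultured 48 h at 1:1 with CFDA-SE-labelled (10 μM solution), activated splenic T cells. Proliferation of CD3+ T cells was read by flow cytometry.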

[4] = test system: Hepa1-6 transplanted tumor; conditions: 30 mg/kg i.p., 14 consecutive days; cited from earlier work
tumor cells = conditions: in vitro cell models, result in words; cited from earlier work
[5] = test system: HepG2 and Huh7 HCC cell transplanted tumor; conditions: HepG2 and Huh7 transplanted tumor models; cited from earlier work
[6] = Mus musculus, read-out: Suppression Rate (MDSC chemotaxis)

For `C=C1C(=O)O[C@@H]2[C@@H]3[C@]4(CC[C@@]3(C)O)C[C@]4(C)CC[C@@H]12` [Compound 1], which inhibition at 1 µM (MDSCs; [6]) is on record?
Its inhibition at 1 µM is 42.3%.

What about the inhibition at 10 µM (MDSCs; [6]) of the same compound?
The inhibition at 10 µM was 83.3%.

What about the “inhibition of MDSC chemotaxis compared to Arg” value (MDSCs; result in words) of the same compound?
The value was “superior inhibition rates”.

What about the solubility [1] of the same compound?
Its solubility is 1140 µg/mL (≈ 4.35 mM).

And the “I113 mRNA expression, ear” value ([2]; 0.01% ointment)?
The value was 3.30 ± 0.47.

What about the “I131 mRNA expression, ear” value ([2]; 0.1% ointment) of the same compound?
Its value is 1.64 ± 0.25.

What about the “I131 mRNA expression, ear” value ([2]; 1% ointment) of the same compound?
The value was 1.10 ± 0.19.

What about the inhibition at 1 µM (CCR2 mRNA) of the same compound?
The inhibition at 1 µM was 35.2%.

And the inhibition at 10 µM (CCR2 mRNA)?
Its inhibition at 10 µM is 76.5%.

What about the “AD-like skin lesions on the backs” value (dorsal atopic dermatitis; 0.01%, 0.1%, 1% ointment) of the same compound?
Its value is “significantly alleviated”.

And the “Dermatitis Score, back” value (dorsal atopic dermatitis; 0.1% ointment, 7 days, max score 12)?
Its value is 2.50 ± 0.22.

And the “inhibition rate of dorsal skin thickness increase” value (dorsal atopic dermatitis; 0.01% ointment)?
The value was 66%.

And the “inhibition rate of dorsal skin thickness increase” value (dorsal atopic dermatitis; 0.1% ointment)?
The value was 72%.

And the “inhibition rate of dorsal skin thickness increase” value (dorsal atopic dermatitis; 1% ointment)?
Its value is 83%.

What about the “Dermatitis Score, ear” value ([3]; 0.01% ointment, 7 days, max score 12) of the same compound?
The value was 3.50 ± 0.22.

And the “AD-like skin lesions on the ears” value ([3]; 0.01%, 0.1%, 1% ointment)?
Its value is “significantly alleviated”.

And the “inhibition rate of ear thickness increase” value ([3]; 0.01% ointment)?
The value was 71%.

What about the “inhibition rate of ear thickness increase” value ([3]; 0.1% ointment) of the same compound?
The value was 71%.

What about the “inhibition rate of ear thickness increase” value ([3]; 1% ointment) of the same compound?
The value was 80%.

What about the “T cell proliferation in MDSC-T cell co-culture” value (T cells / MDSCs; 1 μM, result in words) of the same compound?
Its value is “significantly enhanced T-cell proliferation”.

And the activation at 1 µM (T cells / MDSCs)?
The activation at 1 µM was over 40%.

What does the source list for `C=C1C(=O)O[C@H]2[C@H]1CCC(C)=C1CC[C@@](C)(O)[C@@H]12` [MCL, Micheliolide]?
tumor weight inhibition rate [4]: 50%; IC50, tumor cell growth inhibition (tumor cells): in the micromolar range; activation at 1 µM (T cells / MDSCs): 20 to 40%; effective dose, intraperitoneal [5]: 25 mg/kg
